From patent US5935987A, “Transdermal delivery of 3,4-diarylchromans” (priority 1996, dated 1999)
Where “and” joins values, the source holds several entries; their conditions need not be identical. Equal values may be shown once. Where a name gives a salt, the structure may show the parent alone. Read-outs that look alike come from different tables or passages of the source. Values belong to the compound of their own block, whether it stands above or below them.

How the values were obtained:
[1] = racemate; cited from earlier work
[2] = background statement; cited from earlier work
[3] = background statement, cited from earlier work
[4] = assay type: in vitro ADME, human
Protocol: The effect of selected formulations on levormeloxifene fumarate permeation through human skin in vitro is illustrated in the following way:
Franz glass diffusion cells were used (Franz, T. J.: Curr. Probl. Dermatol., 1978: 7; 58-68).
Experiments were performed on abdominal or breast skin obtained after surgery and kept at -20° C. for not more than ten months. After initial thawing the skin was squeezed between a metal and a glass plate, and after refreezing the skin was dermatomed to a thickness of 0.5 mm.
The human skin membrane was enclosed in the glass chambers with ground faces (diffusing area 0.64 cm^2). A clamp was used to keep the chambers together. […]
After the skin was allowed to equilibrate at 32° C. for one hour, the capacitance was measured with a Lutron DM 6023 Capacitance meter. […]
The donor solutions were made of selected vehicles which were saturated with levormeloxifene fumarate, cf. […] The concentrations of levormeloxifene fumarate in the donor solutions were determined previously by a HPLC method. […]
At appropriate intervals, samples were taken from the receptor phase and replaced by fresh receptor solution in order to keep sink-conditions. The amount of levormeloxifene fumarate in the receptor solution was determined using liquid scintillatory counting. […]
The mean value and the standard deviation were calculated of the flux J of the replicates. […]

[5] = Concentration of levormeloxifene fumarate in saturated donor solutions (HPLC); assay type: physicochemical; conditions: stirred 24 hours, room temperature; for solubility thermodynamic at 24 h: read-out: Conc. unmarked (donor phase saturated)
Protocol: The donor solutions were made of selected vehicles which were saturated with levormeloxifene fumarate, cf. Table 1. To prepare the donor solutions, levormeloxifene fumarate was added to the vehicles, and after stirring at room temperature for 24 hours, the donor solution was saturated with levormeloxifene fumarate and filtered through a Millipore filter 0.22 μm. Thereafter ^14 C-levormeloxifene was added to 1.00 ml of the donor solution to give a final concentration of ^14 C-levormeloxifene at 3 mg/ml (1,3 mCi/mi). Thereafter the donor solution was applied on the epidermal side of the skin, and the experiment was performed with occlusion. The concentrations of levormeloxifene fumarate in the donor solutions were determined previously by a HPLC method.

Compound: COc1ccc2c(c1)OC(C)(C)[C@@H](c1ccccc1)[C@@H]2c1ccc(OCCN2CCCC2)cc1 (relative stereo) [Centchroman]
cholesterol lowering [1]: potent cholesterol lowering pharmaceutical agent expressed by a significant decrease of the serum concentrations

Compound: COc1ccc2c(c1)OC(C)(C)[C@@H](c1ccccc1)[C@@H]2c1ccc(OCCN2CCCC2)cc1 [hydrochloride salt]
hygroscopicity [2]: hygroscopic
behaviour in aqueous suspension [3]: forms a solid gel in aqueous suspension
solubility in water [3]: quite heavy soluble in water

Dosage per day [4]: 0.56 mg
Flux ± S.D. ([4]; pH 4): 0.495 ± 0.125 mg × cm^-2 × h^-1
solubility thermodynamic at 24 h ([5]; acetic acid 0.05m (b4), pH 4, vehicle B4 (acetic acid 0.05M, pH 4)): 325 µg/mL
solubility thermodynamic at 24 h ([5]; b4 + 2% 2-pyrrolidon, vehicle B4 + 2% 2-pyrrolidon): 420 µg/mL
solubility thermodynamic at 24 h ([5]; b4 + 20% ethanol, organic solvent or mixture, vehicle B4 + 20% ethanol): 1400 µg/mL
solubility thermodynamic at 24 h ([5]; b4 + 30% ethanol, organic solvent or mixture, vehicle B4 + 30% ethanol): 3100 µg/mL
solubility thermodynamic at 24 h ([5]; pg + 10% oleic acid, organic solvent or mixture, vehicle PG + 10% oleic acid): 116000 µg/mL
Conc. unmarked (donor phase saturated) ([5]; vehicle B4 (acetic acid 0.05M, pH 4), 1440 min): 320 µg/mL and 325 µg/mL
Compound: COc1ccc2c(c1)OC(C)(C)[C@@H](c1ccccc1)[C@@H]2c1ccc(OCCN2CCCC2)cc1 [levormeloxifene fumarate, (-)-3R,4R-trans-7-methoxy-2,2-dimethyl-3-phenyl-4-{4-[2-(pyrrolidin-1-yl)ethoxy]phenyl}chromane, hydrogen fumarate]

Compound: COc1ccc2c(c1)OC(C)(C)[C@@H](c1ccccc1)[C@@H]2c1ccc(OCCN2CCCC2)cc1 [levormeloxifene, (-)-3R,4R-trans-7-methoxy-2,2-dimethyl-3-phenyl-4-{4-[2-(pyrrolidin-1-yl)ethoxy]phenyl}chromane]
solubility in water ([3]; listed as free base): very poor solubility in water
